Earlier results as cited in EP4563141A1, “SELF-EMULSIFYING FORMULATION FOR TOPICAL USE” (Guidotti, Elena, priority 2023, dated 2025).
Like-named read-outs stand apart in the source and are kept apart here.

Experiments:
[1] = system: S. aureus biofilm formation; details: 0.01% (v/v); trans-nerolidol at a similar concentration
[2] = several drugs, particularly 5-fluorouracil, with the use of nerolidol
[3] = human; 4% (unspecified isomer); maximization tests or repeated insult tests
[4] = compared with animals in the control group
[5] = human; 4% nerolidol (unspecified isomer); single occlusive application for 48 h
[6] = not given; remark: listed apart in the source
[7] = not given; remark: listed apart in the source
CB2 = CB2 (Homo sapiens, UniProt P34972)
Sequence of CB2 (P34972 whole entry, species assumed): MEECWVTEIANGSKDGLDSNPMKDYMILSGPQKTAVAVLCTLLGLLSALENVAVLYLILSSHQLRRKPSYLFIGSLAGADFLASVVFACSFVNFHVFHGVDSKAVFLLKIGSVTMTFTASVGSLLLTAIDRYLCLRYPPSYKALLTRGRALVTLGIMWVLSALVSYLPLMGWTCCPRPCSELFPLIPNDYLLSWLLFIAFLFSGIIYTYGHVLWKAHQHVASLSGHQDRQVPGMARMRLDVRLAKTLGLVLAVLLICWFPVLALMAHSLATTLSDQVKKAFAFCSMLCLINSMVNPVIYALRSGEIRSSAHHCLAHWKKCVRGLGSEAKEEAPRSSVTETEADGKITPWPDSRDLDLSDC

CB1 = CB1 (Homo sapiens, UniProt P21554)
Sequence of CB1 (P21554 whole entry, species assumed): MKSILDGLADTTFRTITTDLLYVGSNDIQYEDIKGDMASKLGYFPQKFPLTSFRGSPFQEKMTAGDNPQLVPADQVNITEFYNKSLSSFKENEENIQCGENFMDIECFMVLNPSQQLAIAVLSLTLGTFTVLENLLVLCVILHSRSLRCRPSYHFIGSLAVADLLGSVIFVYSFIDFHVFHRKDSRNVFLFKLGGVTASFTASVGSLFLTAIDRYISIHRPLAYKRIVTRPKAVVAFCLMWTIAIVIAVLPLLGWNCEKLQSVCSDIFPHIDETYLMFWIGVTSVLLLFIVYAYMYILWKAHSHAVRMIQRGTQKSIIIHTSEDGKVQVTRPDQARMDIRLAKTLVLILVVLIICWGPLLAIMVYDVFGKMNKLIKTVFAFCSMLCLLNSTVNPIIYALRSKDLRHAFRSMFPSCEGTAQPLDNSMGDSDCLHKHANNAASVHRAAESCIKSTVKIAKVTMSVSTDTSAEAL

C=CC(C)(O)CC/C=C(/C)CCC=C(C)C (stereo not drawn) [Cis-nerolidol]
inhibit S. aureus biofilm formation [1]: more than 80%

C=CC(C)(O)CCC=C(C)CCC=C(C)C (centres unmarked) [nerolidol, 3,7,11-trimethyl-1,6,10-Dodecatrien-3-ol]
increase in diffusion rate for transdermal penetration [2]: more than 20 fold
skin sensitization [3]: did not cause positive reactions
reduction in ulcerative lesion index (ULI) ([4]; 50 mg/k): 41.22
reduction in ulcerative lesion index (ULI) ([4]; 250 mg/k): 51.31
reduction in ulcerative lesion index (ULI) ([4]; 500 mg/k): 56.57
skin irritation [5]: did not cause skin irritation
cross-sensitization (guinea pigs induced with farnesyl acetate): no cross-sensitization was observed
skin sensitization (guinea pigs, two adjuvant tests, concentrations of 3% and 10%): weak reactions
skin irritation ([6]; 5% in diethyl phthalate, eliminated after 48 h): very mild edema in one animal
skin irritation ([6]; rabbits, undiluted (unspecified isomer), intact and abraded skin, after 48 h): well-defined erythema or mild edema

C=CC(C)(O)CC/C=C(\C)CCC=C(C)C (stereo not drawn) [trans-nerolidol]
inhibit S. aureus biofilm formation [1]: 45%

C=CCc1ccc(O)c(-c2cc(CC=C)ccc2O)c1 [magnolol]
LogP [7]: over 4
mode of activity at CB2 (CB2): partial CBD receptor agonist

C=CCc1ccc(O)c(-c2ccc(O)c(CC=C)c2)c1 [honokiol]
LogP [7]: over 4
mode of activity at CB1 (CB1): full agonistic activity
mode of activity at CB2 (CB2): antagonistic properties
